Laboratory results taken from PMC12582985, “Preparation and characterization of renal cell peptides from fetal rats for their antitumor activity” (FEBS Open Bio, 2025).

Key:
MCF‐7 cells = assay: CCK‐8 cell viability assay, MCF‐7; format: cell-based, human; details: for dynamic cytotoxicity against MCF‐7 cells: 45 μg·mL^−1, 12–72 h, CCK‐8 every 12 h, maintained at highest levels to 72 h
Excerpt: (§1) Human breast cancer MCF‐7 (RRID:CVCL_0031), human lung cancer A549 (RRID:CVCL_0023), human colon cancer HCT‐116 (RRID:CVCL_0291), human cervical cancer Hela (RRID:CVCL_0030), human hepatoma HepG2 (RRID:CVCL_0027), human gastric cancer SGC‐7901 (RRID:CVCL_0520) and human non‐tumor mamma gland epithelial MCF‐10A (RRID:CVCL_0598) and transformed human liver epithelial‐2 (THLE‐2) (RRID:CVCL_3803) cells were obtained from Shanghai Donghuan Biotechnology (Shanghai, China). All cell lines had been authenticated in the past 3 years and again within 4 months after completion of the experiments. All cell lines had been tested for mycoplasma contamination frequently. Their identities were characterized by short tandem repeat analysis. All of these cell lines were cultured in high glucose Dulbecco's modified Eagle's medium supplemented by 10% fetal bovine serum, 100 units·mL^−1 penicillin and 100 μg·mL^−1 streptomycin (complete culture medium).
(§2) MCF‐7 cells (1 × 10^4 cells per well) were treated in triplicate with different doses of each type of RC extract in 96‐well plates for varying time periods. The negative control cells were treated with the diluent of physiological saline, whereas positive control cells were treated with different concentrations (0.1–5 mM) of 5‐fluorouracil (5‐FU) (Leica, Wetzlar, Germany). During the last hour of culture, each well of cells was treated with 10 μL of CCK‐8 solution. The absorbance of the supernatants of individual wells was measured at 450 nm using a microplate reader. Similarly, the effect of different synthesized RCPs (5–45 μg·mL^−1) on the viability of different types of human cancer cells was tested with CCK‐8 assays using the diluent of physiological saline containing the same concentration of dimethylsulfoxide as a negative control and the same concentrations of 5‐FU as the positive controls. Ten RCPs with a predicted strong bioactivity were synthesized by GenScript ([…]) and their purity, sequences and solubility are shown in Table 1. […] The formula used to calculate the cytotoxicity rate of each concentration of RCP was: Cytotoxicity rate (%) = (absorbance value of the control group − absorbance value of the experimental group)/absorbance value of the control group × 100%. In addition, MCF‐7 cells were treated with each type of RCP at 45 μg·mL^−1 for 12–72 h and the dynamic impact of RCP treatment on the viability of MCF‐7 cells was determined every 12 h using CCK‐8 assays.
(§3) Data are expressed as the mean ± SEM. The data distribution was analyzed by Shapiro–Wilk test. The IC50 values of each peptide for individual cell lines were determined using the PRISM, version 8 (GraphPad Software Inc.). Briefly, all dose–response data were converted into […], which were automatically analyzed by PRISM for non‐linear regression to determine and report the IC50 and its SD for each peptide in a specific cell line. The difference among groups was analyzed by analysis of variance and post‐hoc Tukey's tests and the comparison between groups was performed using Student's t‐test and PRISM, version 8 (GraphPad Software Inc.). P < 0.05 was considered statistically significant.

Hela cells = assay: CCK‐8 cell viability assay, Hela; format: cell-based, human; details: CCK‐8, 48 h, triplicate; peptides 5–45 μg·mL^−1; 5‐FU positive control 0.1–5 mM; vs negative control
Excerpt: as §1, §2, §3

MCF‐10A cells = assay: CCK‐8 cell viability assay, non‐tumor MCF‐10A; format: cell-based, human; details: CCK‐8, 48 h, triplicate; peptides 5–45 μg·mL^−1; 5‐FU positive control 0.1–5 mM; vs negative control
Excerpt: as §1, §2, §3

HepG2 cells = assay: CCK‐8 cell viability assay, HepG2; format: cell-based, human; details: CCK‐8, 48 h, triplicate; peptides 5–45 μg·mL^−1; 5‐FU positive control 0.1–5 mM; vs negative control
Excerpt: as §1, §2, §3

THLE‐2 cells = assay: CCK‐8 cell viability assay, non‐tumor THLE‐2; format: cell-based, human; details: CCK‐8, 48 h, triplicate; peptides 5–45 μg·mL^−1; 5‐FU positive control 0.1–5 mM; vs negative control
Excerpt: as §1, §2, §3

HCT‐116 cells = assay: CCK‐8 cell viability assay, HCT‐116; format: cell-based, human; details: CCK‐8, 48 h, triplicate; peptides 5–45 μg·mL^−1; 5‐FU positive control 0.1–5 mM; vs negative control
Excerpt: as §1, §2, §3

A549 cells = assay: CCK‐8 cell viability assay, A549; format: cell-based, human; details: CCK‐8, 48 h, triplicate; peptides 5–45 μg·mL^−1; 5‐FU positive control 0.1–5 mM; vs negative control
Excerpt: as §1, §2, §3

SGC‐7901 cells = assay: CCK‐8 cell viability assay, SGC‐7901; format: cell-based, human; details: CCK‐8, 48 h, triplicate; peptides 5–45 μg·mL^−1; 5‐FU positive control 0.1–5 mM; vs negative control
Excerpt: as §1, §2, §3

[1] = tested on: cancer cells (MCF‐7, A549, HCT‐116, Hela, HepG2, SGC‐7901) vs non‐tumor MCF‐10A and THLE‐2 cells; assay: CCK‐8 cytotoxicity, preference for cancer cells over non‐tumor cells; format: cell-based, human; parameters: cytotoxicity against non‐tumor MCF‐10A and THLE‐2 cells compared with tumor cell lines: dose or concentration left out as unconfirmed; details: for preference of cytotoxicity for cancer cells over non‐tumor cells: 5–45 μg·mL^−1, 48 h, CCK‐8; for cytotoxicity against non‐tumor MCF‐10A and THLE‐2 cells compared with tumor cell lines: 48 h, P < 0.05 or P < 0.01
Excerpt: as §1, §2, §3

[2] = Solubility of the synthesized peptides; format: physicochemical; details: for aqueous solubility: in words; for Solubility: solvent given for the synthesized peptide (GenScript)
[3] = CCK‐8, 48 h, triplicate, peptides 5–45 μg·mL^−1, 5‐FU positive control 0.1–5 mM, vs negative control

Molecule	aqueous solubility [2]	Solubility [2]	viability of MCF‐7 cells (MCF‐7 cells; [3])	viability of MCF‐7 cells (MCF‐7 cells; RC extract experiment, positive control 0.1–5 mM, dose‐dependent, P < 0.01)	viability of Hela cells (Hela cells)	viability of non‐tumor MCF‐10A cells (MCF‐10A cells)	viability of HepG2 cells (HepG2 cells)	viability of non‐tumor THLE‐2 cells (THLE‐2 cells)	viability of HCT‐116 cells (HCT‐116 cells)	viability of A549 cells (A549 cells)	viability of SGC‐7901 cells (SGC‐7901 cells)	dynamic cytotoxicity against MCF‐7 cells (MCF‐7 cells)	preference of cytotoxicity for cancer cells over non‐tumor cells [1]	cytotoxicity against non‐tumor MCF‐10A and THLE‐2 cells compared with tumor cell lines [1]
O=c1[nH]cc(F)c(=O)[nH]1 [5‐FU, 5‐fluorouracil, reference compound]	–	–	significantly decreased the viability	significantly reduced the viability	significantly decreased the viability	significantly decreased the viability	significantly decreased the viability	significantly decreased the viability	significantly decreased the viability	significantly decreased the viability	significantly decreased the viability	–	–	–
GPAGPQGPR [RCP‐3, synthesized 9‐mer renal cell peptide from Collagen alpha‐1 (I) chain, trypsin digested]	–	Water, pH 7.0	decreased the viability	–	decreased the viability	decreased the viability	decreased the viability	decreased the viability	decreased the viability	decreased the viability	decreased the viability	–	did not preferably decrease the viability of tumor cells	–
QQHMKFGKKCWRKVWALLYA [RCP‐1, synthesized 20‐mer renal cell peptide from Docking protein 3, trypsin digested]	low aqueous solubility	0.1% Dimethylsulfoxide	significantly decreased the viability	–	significantly decreased the viability	only treatment with the highest doses of them slightly reduced the viability	significantly decreased the viability	only treatment with the highest doses of them slightly reduced the viability	significantly decreased the viability	significantly decreased the viability	significantly decreased the viability	increased with time from 12 h post treatment to 48 h	potent cytotoxicity preferably against cancer cells	statistically lower than tumor cell lines

Second part, led by results:

aqueous solubility [2]	Solubility [2]	Molecule	viability of MCF‐7 cells (MCF‐7 cells; [3])	viability of MCF‐7 cells (MCF‐7 cells; RC extract experiment, positive control 0.1–5 mM, dose‐dependent, P < 0.01)	viability of Hela cells (Hela cells)	viability of non‐tumor MCF‐10A cells (MCF‐10A cells)	viability of HepG2 cells (HepG2 cells)	viability of non‐tumor THLE‐2 cells (THLE‐2 cells)	viability of HCT‐116 cells (HCT‐116 cells)	viability of A549 cells (A549 cells)	viability of SGC‐7901 cells (SGC‐7901 cells)	dynamic cytotoxicity against MCF‐7 cells (MCF‐7 cells)	preference of cytotoxicity for cancer cells over non‐tumor cells [1]	cytotoxicity against non‐tumor MCF‐10A and THLE‐2 cells compared with tumor cell lines [1]
low aqueous solubility	0.1% Dimethylsulfoxide	EWLKVPCLSTRLINPENMGF [RCP‐6, synthesized 20‐mer renal cell peptide from Sacsin molecular chaperone, trypsin digested]	significantly decreased the viability	–	significantly decreased the viability	only treatment with the highest doses of them slightly reduced the viability	significantly decreased the viability	only treatment with the highest doses of them slightly reduced the viability	significantly decreased the viability	significantly decreased the viability	significantly decreased the viability	increased with time from 12 h post treatment to 48 h	potent cytotoxicity preferably against cancer cells	statistically lower than tumor cell lines
–	Water, pH 7.0	FAGDDAPR [RCP‐4, synthesized 8‐mer renal cell peptide from Actin, cytoplasmic 2, trypsin digested]	decreased the viability	–	decreased the viability	decreased the viability	decreased the viability	decreased the viability	decreased the viability	decreased the viability	decreased the viability	–	did not preferably decrease the viability of tumor cells	–
–	0.1% Dimethylsulfoxide	GIYAPDSPRAF [RCP‐8, synthesized 11‐mer renal cell peptide from Vanin 1, protamex‐digested]	decreased the viability	–	decreased the viability	decreased the viability	decreased the viability	decreased the viability	decreased the viability	decreased the viability	decreased the viability	–	did not preferably decrease the viability of tumor cells	–
–	Water, pH 7.0	IYAPDSPRAF [RCP‐10, synthesized 10‐mer renal cell peptide from Vanin 1, protamex‐digested]	decreased the viability	–	decreased the viability	decreased the viability	decreased the viability	decreased the viability	decreased the viability	decreased the viability	decreased the viability	–	did not preferably decrease the viability of tumor cells	–
–	Water, pH 7.0	PAPPKPEPK [RCP‐9, synthesized 9‐mer renal cell peptide from Non‐histone chromosomal protein HMG‐17, trypsin digested]	decreased the viability	–	decreased the viability	decreased the viability	decreased the viability	decreased the viability	decreased the viability	decreased the viability	decreased the viability	–	did not preferably decrease the viability of tumor cells	–
